Results taken from ChEMBL document CHEMBL3808348, “Rational Design, Synthesis, and Biological Evaluation of 7-Azaindole Derivatives as Potent Focused Multi-Targeted Kinase Inhibitors” (J Med Chem, 2016).

Key:
[1] = molecular target: Serine/threonine-protein kinase B-raf (Homo sapiens) (UniProt P15056); assay: Inhibition of full length GST-tagged human recombinant BRAF expressed in baculovirus using Fluorescein-MAP2K1 as substrate at 100 nM
[2] = molecular target: Platelet-derived growth factor receptor alpha (Homo sapiens, UniProt P16234); assay: Inhibition of full length GST-tagged human recombinant PDGFRalpha expressed in baculovirus using Fluorescein-Poly GT as substrate at 100 nM
Platelet-derived growth factor receptor alpha, sequence (P16234 whole entry): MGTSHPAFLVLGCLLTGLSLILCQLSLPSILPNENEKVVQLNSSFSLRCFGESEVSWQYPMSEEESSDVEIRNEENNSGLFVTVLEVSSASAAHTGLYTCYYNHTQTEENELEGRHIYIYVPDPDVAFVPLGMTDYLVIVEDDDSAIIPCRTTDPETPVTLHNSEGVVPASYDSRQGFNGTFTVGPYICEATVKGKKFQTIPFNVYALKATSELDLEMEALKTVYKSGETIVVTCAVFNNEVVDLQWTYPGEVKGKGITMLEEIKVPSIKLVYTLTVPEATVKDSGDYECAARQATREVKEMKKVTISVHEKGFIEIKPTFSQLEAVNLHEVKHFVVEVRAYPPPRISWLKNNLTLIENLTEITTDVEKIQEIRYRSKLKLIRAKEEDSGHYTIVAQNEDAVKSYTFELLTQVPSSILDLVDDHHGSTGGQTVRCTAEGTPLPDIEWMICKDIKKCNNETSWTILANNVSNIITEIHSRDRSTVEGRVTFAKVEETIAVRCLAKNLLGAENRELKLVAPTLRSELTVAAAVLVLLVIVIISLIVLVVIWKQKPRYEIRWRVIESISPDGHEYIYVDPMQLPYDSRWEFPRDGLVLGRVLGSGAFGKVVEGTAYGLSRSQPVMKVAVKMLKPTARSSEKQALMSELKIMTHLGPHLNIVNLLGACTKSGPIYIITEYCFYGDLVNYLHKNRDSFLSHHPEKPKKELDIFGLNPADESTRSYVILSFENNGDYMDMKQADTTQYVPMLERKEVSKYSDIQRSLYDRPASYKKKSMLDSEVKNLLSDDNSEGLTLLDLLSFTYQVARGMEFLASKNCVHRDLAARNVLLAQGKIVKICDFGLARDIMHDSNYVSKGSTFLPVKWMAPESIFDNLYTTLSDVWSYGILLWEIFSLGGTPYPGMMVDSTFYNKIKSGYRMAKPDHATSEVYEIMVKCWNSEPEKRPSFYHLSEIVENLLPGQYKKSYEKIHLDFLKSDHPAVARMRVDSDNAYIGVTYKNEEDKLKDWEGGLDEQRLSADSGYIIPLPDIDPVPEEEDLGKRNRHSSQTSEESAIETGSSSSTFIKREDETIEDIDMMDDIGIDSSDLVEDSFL

[3] = molecular target: Proto-oncogene tyrosine-protein kinase Src (Homo sapiens, UniProt P12931); assay: Inhibition of full length His-tagged human recombinant cSRC expressed in baculovirus using Fluorescein-Poly GT as substrate at 100 nM
Proto-oncogene tyrosine-protein kinase Src, sequence (P12931 2-536 limits assumed): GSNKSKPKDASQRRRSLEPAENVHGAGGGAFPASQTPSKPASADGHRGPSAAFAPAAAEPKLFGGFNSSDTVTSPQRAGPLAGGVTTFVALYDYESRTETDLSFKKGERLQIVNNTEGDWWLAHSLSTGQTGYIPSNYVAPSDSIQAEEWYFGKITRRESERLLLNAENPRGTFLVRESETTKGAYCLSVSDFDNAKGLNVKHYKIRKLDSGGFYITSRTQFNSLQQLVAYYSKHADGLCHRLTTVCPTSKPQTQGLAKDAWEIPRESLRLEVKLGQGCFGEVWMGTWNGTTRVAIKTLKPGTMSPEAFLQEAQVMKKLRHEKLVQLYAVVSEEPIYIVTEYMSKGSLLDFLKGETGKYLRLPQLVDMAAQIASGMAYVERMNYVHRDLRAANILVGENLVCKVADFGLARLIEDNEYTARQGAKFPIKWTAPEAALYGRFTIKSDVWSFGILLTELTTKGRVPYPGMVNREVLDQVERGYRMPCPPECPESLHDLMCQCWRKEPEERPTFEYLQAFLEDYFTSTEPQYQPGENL

[4] = molecular target: Fibroblast growth factor receptor 2 (Homo sapiens) (UniProt P21802); assay: Inhibition of His-tagged human recombinant FGFR2 (403 to 822 residues) expressed in baculovirus using Fluorescein-Poly GT as substrate at 100 nM
Fibroblast growth factor receptor 2 (Homo sapiens), sequence (P21802 22-821 limits assumed): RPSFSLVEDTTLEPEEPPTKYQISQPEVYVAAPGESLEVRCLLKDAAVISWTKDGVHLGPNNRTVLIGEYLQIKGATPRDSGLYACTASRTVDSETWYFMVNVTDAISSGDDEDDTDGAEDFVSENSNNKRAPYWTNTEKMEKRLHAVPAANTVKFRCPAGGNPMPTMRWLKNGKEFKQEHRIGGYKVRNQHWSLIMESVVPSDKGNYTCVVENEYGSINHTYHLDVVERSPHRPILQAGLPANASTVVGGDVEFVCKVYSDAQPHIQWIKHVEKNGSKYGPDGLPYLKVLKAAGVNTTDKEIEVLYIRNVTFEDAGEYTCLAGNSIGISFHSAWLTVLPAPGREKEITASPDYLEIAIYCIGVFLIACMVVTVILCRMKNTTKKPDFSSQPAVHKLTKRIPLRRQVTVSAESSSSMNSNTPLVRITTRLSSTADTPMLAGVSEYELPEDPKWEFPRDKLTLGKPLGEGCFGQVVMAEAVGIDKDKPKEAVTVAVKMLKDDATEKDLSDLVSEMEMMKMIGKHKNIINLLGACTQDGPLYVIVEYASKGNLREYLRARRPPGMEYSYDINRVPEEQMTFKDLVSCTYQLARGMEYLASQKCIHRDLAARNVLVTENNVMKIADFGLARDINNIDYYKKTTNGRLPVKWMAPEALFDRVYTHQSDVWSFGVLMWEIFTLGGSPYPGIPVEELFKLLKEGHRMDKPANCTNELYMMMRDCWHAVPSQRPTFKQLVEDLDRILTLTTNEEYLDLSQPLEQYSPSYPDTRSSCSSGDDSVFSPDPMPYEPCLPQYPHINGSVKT

[5] = molecular target: Vascular endothelial growth factor receptor 2 (Homo sapiens) (UniProt P35968); assay: Inhibition of full length His-tagged human recombinant VEGFR2 expressed in baculovirus using Fluorescein-Poly GT as substrate at 100 nM
Vascular endothelial growth factor receptor 2 (Homo sapiens), sequence (P35968 whole entry, the tested form may be a part): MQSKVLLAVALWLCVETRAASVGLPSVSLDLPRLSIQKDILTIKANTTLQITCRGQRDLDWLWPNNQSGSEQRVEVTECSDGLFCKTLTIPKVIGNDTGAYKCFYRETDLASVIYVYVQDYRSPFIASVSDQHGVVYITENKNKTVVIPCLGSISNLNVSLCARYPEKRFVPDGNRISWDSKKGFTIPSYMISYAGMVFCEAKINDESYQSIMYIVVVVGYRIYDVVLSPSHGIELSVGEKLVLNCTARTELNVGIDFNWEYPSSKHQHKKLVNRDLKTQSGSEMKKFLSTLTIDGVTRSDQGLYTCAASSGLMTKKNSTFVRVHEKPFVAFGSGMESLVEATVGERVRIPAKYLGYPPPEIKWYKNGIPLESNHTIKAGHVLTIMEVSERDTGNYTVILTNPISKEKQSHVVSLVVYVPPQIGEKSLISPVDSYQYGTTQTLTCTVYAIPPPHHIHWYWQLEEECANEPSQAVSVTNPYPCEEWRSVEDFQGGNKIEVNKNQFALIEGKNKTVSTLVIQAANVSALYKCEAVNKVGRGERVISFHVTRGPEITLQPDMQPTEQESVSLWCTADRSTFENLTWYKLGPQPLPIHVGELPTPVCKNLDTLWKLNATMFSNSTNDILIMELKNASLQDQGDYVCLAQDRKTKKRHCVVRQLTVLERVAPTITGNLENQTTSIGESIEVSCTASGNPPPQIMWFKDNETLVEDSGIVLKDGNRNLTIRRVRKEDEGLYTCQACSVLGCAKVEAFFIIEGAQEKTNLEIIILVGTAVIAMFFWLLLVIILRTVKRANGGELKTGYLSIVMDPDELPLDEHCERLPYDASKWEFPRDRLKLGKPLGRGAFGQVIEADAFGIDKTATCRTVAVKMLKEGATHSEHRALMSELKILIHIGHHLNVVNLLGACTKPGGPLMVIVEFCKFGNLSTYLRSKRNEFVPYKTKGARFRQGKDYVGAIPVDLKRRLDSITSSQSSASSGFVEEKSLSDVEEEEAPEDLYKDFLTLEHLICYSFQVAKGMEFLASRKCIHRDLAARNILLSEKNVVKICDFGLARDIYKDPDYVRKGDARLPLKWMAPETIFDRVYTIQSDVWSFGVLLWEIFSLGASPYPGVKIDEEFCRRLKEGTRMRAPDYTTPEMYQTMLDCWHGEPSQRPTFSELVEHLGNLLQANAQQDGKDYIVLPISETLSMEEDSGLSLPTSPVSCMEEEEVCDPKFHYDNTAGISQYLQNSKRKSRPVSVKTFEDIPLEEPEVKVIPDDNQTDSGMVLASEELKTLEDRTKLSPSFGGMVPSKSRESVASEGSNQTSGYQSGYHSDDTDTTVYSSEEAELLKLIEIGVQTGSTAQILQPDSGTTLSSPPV

[6] = molecular target: Epidermal growth factor receptor (Homo sapiens, UniProt P00533); assay: Inhibition of GST-tagged human recombinant EGFR (668 to1210 residues) expressed in baculovirus using Fluorescein-Poly GT as substrate at 100 nM
Epidermal growth factor receptor, sequence (P00533 whole entry, the tested form may be a part): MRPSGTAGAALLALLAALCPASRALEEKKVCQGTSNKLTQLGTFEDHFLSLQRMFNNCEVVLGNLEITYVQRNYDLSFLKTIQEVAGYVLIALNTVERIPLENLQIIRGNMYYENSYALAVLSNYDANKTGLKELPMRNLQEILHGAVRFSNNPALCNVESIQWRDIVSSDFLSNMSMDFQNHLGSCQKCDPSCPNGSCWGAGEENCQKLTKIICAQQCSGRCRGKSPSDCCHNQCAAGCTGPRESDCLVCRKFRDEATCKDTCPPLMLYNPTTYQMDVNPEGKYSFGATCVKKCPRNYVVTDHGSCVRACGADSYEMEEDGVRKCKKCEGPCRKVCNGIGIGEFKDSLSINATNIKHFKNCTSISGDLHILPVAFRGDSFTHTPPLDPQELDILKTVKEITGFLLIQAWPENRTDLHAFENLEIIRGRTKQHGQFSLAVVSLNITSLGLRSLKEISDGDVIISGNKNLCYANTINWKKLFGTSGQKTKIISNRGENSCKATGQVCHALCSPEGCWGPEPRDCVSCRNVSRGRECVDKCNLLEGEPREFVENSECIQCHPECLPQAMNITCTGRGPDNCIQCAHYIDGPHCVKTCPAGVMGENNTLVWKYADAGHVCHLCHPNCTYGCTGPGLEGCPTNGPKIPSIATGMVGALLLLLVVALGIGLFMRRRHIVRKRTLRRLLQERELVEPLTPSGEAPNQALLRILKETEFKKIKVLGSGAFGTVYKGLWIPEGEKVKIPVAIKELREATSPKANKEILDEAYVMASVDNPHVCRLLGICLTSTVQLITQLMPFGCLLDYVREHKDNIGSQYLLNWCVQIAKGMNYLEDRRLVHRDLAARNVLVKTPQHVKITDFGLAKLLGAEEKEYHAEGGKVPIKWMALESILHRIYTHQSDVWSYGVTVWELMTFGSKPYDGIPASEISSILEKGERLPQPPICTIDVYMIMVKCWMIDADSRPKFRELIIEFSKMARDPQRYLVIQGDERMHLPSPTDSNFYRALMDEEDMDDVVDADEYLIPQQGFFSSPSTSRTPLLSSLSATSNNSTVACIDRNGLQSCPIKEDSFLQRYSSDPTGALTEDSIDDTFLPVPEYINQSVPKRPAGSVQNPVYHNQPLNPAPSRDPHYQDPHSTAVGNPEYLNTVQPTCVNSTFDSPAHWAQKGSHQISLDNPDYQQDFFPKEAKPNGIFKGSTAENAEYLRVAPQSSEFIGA

Structure (SMILES) | inhibition [1] [%] | inhibition [2] [%] | inhibition [3] [%] | inhibition [4] [%] | inhibition [5] [%] | inhibition [6] [%]
COC(=O)c1cc2cc(NCc3cc(NC(=O)c4cccc(Br)c4)ccc3C)cnc2[nH]1 | 63 | 87 | 85 | 1 | 59 | 35
COC(=O)c1cc2cc(/C=C/c3cc(NC(=O)c4ccc(CN5CCC(N(C)C)C5)c(C(F)(F)F)c4)ccc3C)cnc2[nH]1 (stereo unspecified) | 33 | 68 | 55 | 38 | 61 | 59
COC(=O)c1cc2cc(CNc3cc(NC(=O)c4ccc(CN5CCN(C)CC5)cc4)ccc3C)cnc2[nH]1 | 17 | 88 | 47 | 8 | 46 | 63
Cc1ccc(NC(=O)c2ccc(CN3CCN(C)CC3)cc2)cc1CNc1cnc2[nH]c(C(=O)O)cc2c1 | 12 | 79 | 75 | 14 | 72 | 96
COC(=O)c1cc2cc(NCc3cc(NC(=O)c4ccc5nn[nH]c5c4)ccc3C)cnc2[nH]1 | 69 | 77 | 34 | 4 | 18 | 20
COC(=O)c1cc2cc(NCc3cc(NC(=O)c4cc(N(C)C)cc(C(F)(F)F)c4)ccc3C)cnc2[nH]1 | 14 | 42 | 108 | 5 | 22 | 42
COC(=O)c1cc2cc(NCc3cc(NC(=O)c4cccc(C(C)C)c4)ccc3C)cnc2[nH]1 | 24 | 61 | 99 | 15 | 32 | 52
COC(=O)c1cc2cc(NCc3cc(NC(=O)c4ccc(C)c(C(F)(F)F)c4)ccc3C)cnc2[nH]1 | 16 | 47 | 74 | 10 | 19 | 64
CC(=O)c1cc2cc(NCc3cc(NC(=O)c4ccc(CN5CCN(C)CC5)cc4)ccc3C)cnc2[nH]1 | 35 | 96 | 87 | 5 | 88 | 99
COC(=O)c1cc2cc(NCc3cc(NC(=O)c4cc[nH]c4)ccc3C)cnc2[nH]1 | 51 | 71 | 11 | 4 | 37 | 15
COC(=O)c1cc2cc(NCc3cc(NC(=O)c4ccnc(C(F)(F)F)c4)ccc3C)cnc2[nH]1 | -7 | 42 | 42 | -2 | 13 | 32
COC(=O)c1cc2cc(NCc3cc(NC(=O)c4ccc(-c5csc(C)n5)cc4)ccc3C)cnc2[nH]1 | 35 | 74 | 72 | -1 | 13 | 66
COC(=O)c1cc2cc(CCc3cc(NC(=O)c4ccc(CN5CCN(C)CC5)cc4)ccc3C)cnc2[nH]1 | – | 99 | 91 | 35 | 98 | 98
COC(=O)c1cc2cc(NCc3cc(NC(=O)c4cccc(C(F)(F)F)c4)ccc3C)cnc2[nH]1 | 39 | 68 | 108 | 7 | 38 | 63
COC(=O)c1cc2cc(NCc3cc(NC(=O)Cc4ccccc4Br)ccc3C)cnc2[nH]1 | 71 | 97 | 65 | 8 | 41 | -1
COC(=O)c1cc2cc(NCc3cc(NC(=O)c4ccc(O)c(C(F)(F)F)c4)ccc3C)cnc2[nH]1 | 37 | 74 | 66 | 3 | 36 | 53
COC(=O)c1cc2cc(NCc3cc(NC(=O)c4ccc(C(F)(F)F)nc4)ccc3C)cnc2[nH]1 | 50 | 76 | 39 | -7 | 0 | 81
COC(=O)c1cc2cc(COc3cc(NC(=O)c4ccc(CN5CCN(C)CC5)cc4)ccc3C)cnc2[nH]1 | 7 | 98 | 58 | 14 | 67 | 81
Cc1ccc(NC(=O)c2ccc(CN3CCC(N(C)C)C3)c(C(F)(F)F)c2)cc1CNc1cnc2[nH]c(C(=O)O)cc2c1 (stereo unspecified) | 33 | 66 | 86 | 71 | 80 | 98
COC(=O)c1cc2cc(NCc3cc(NC(=O)c4cccc(OC(F)(F)F)c4)ccc3C)cnc2[nH]1 | 29 | 66 | 105 | 8 | 40 | 39
COC(=O)c1cc2cc(/C=C/c3cc(NC(=O)c4ccc(CN5CCN(C)CC5)cc4)ccc3C)cnc2[nH]1 | 24 | 88 | 40 | 2 | 51 | 38
COC(=O)c1cc2cc(NCc3cc(NC(=O)c4ccccc4OC)ccc3C)cnc2[nH]1 | 62 | 93 | 78 | 12 | 42 | 16
COC(=O)c1cc2cc(NCc3cc(NC(=O)c4cccc(C)c4)ccc3C)cnc2[nH]1 | 74 | 87 | 84 | 6 | 72 | 32
CC(=O)c1cc2cc(NCc3cc(NC(=O)c4cc(-n5cnc(C)c5)cc(C(F)(F)F)c4)ccc3C)cnc2[nH]1 | 55 | 24 | 59 | 13 | 24 | 43
COC(=O)c1cc2cc(NCc3cc(NC(=O)c4ccc(Cl)c(C(F)(F)F)c4)ccc3C)cnc2[nH]1 | 11 | 71 | 86 | 5 | 9 | 64
COC(=O)c1cc2cc(NCc3cc(NC(=O)Cc4cccc(C(F)(F)F)c4)ccc3C)cnc2[nH]1 | 61 | 87 | 58 | 6 | 29 | 2
Cc1cn(-c2cc(C(=O)Nc3ccc(C)c(CNc4cnc5[nH]c(C(=O)O)cc5c4)c3)cc(C(F)(F)F)c2)cn1 | 18 | 63 | 69 | 49 | 58 | 91
